Source: patent US6946427B2, “Preservative blends containing iodine containing compounds” (Lonza Inc., priority 2001, dated 2005)
Like-named read-outs stand apart in the source and are kept apart here.

System: S. aureus, P. aeruginosa, and E. coli
Test: Preservative challenge test in anionic protein shampoo inoculated with mixed bacteria; plate counts and Kull synergism value
Type: cell-based

Compound	Qa, concentration of sodium salicylate alone required to yield 100% retardation of the bacteria	S. aureus, P. aeruginosa, and E. coli (cfu/g) Day 0	S. aureus, P. aeruginosa, and E. coli (cfu/g) Day 14	S. aureus, P. aeruginosa, and E. coli (cfu/g) Day 0 (anionic protein shampoo, single preservative, printed ">0.5%" by weight, Day 0)	S. aureus, P. aeruginosa, and E. coli (cfu/g) Day 14 (anionic protein shampoo, single preservative, printed ">0.5%" by weight, Day 14)	Qc, concentration of sodium dehydroacetate monohydrate alone required to yield 100% retardation of the bacteria (percent by weight, plate count <10 cfu/g after 14 days)
O=C([O-])c1ccccc1O.[Na+] [Sodium Salicylate, sodium salicylate]	>1.00%	3.0 × 10^6 cfu/g	5.0 × 10^2 cfu/g			
CC(=O)c1c([O-])cc(C)oc1=O.O.[Na+] [Sodium Dehydroacetate Monohydrate, sodium dehydroacetate monohydrate]				3.0 × 10^6 cfu/g	4.0 × 10^3 cfu/g	>0.50%
